Measurements reported in patent US20150010928A1, “MEANS AND METHODS FOR ASSESSING AN ENDOCRINE DISEASE OR DISORDER” (priority 2012, published 2015).
Marks after values point to notes of the source that are not given here.

Legend:
[1] = tested on: female rats; assay: Plasma metabolite profiling (GC-MS, LC-MS, SPE-LC-MS) in female rats dosed once daily over 28 days (OECD 407); assay type: in vivo, rat; parameters: key to TAG No 07 / Lysophosphatidylcholine (C17:0): ratio of treated group mean to untreated control group mean; key to 5-O-Methylsphingosine (d18:1) / Isopalmitic acid (C16:0) / Valine / Alanine / Ketoleucine / Serine / Lactate / Arginine: ratio of treated group mean to untreated control mean; details: high dose; for Isopalmitic acid (C16:0): Table 17a; for Alanine / Arginine / Ketoleucine / Lactate / Proline / Serine / Valine: Table 17b
Procedure: Each dose group in the studies consisted of five rats per sex. Additional groups of each 5 male and female animals served as controls. […] All animals of the animal population were kept under the same constant temperature (20-24±3° C.) and the same constant humidity (30-70%). The animals of the animal population were fed ad libitum. The food to be used was essentially free of chemical or microbial contaminants. Drinking water was also offered ad libitum. Accordingly, the water was free of chemical and microbial contaminants as laid down in the European Drinking Water Directive 98/83/EG. The illumination period was 12 hours light followed by 12 hours darkness (12 hours light, from 6:00 to 18:00, and 12 hours darkness, from 18:00 to 6:00). […] The test substances (compounds) in the Tables 1 to 17 below were dosed and administered as described in the Table 18.
In the morning of day 7, 14, and 28, blood was taken from the retroorbital venous plexus from fasted anaesthetized animals. From each animal, 1 ml of blood was collected with EDTA as anticoagulant. The samples were centrifuged for generation of plasma. All plasma samples were covered with a N2 atmosphere and then stored at −80° C. until analysis.
For mass spectrometry-based metabolite profiling analyses plasma samples were extracted and a polar and a non-polar (lipid) fraction was obtained. For GC-MS analysis, the non-polar fraction was treated with methanol under acidic conditions to yield the fatty acid methyl esters. Both fractions were further derivatised with O-methyl-hydroxyamine hydrochloride and pyridine to convert Oxogroups to O-methyloximes and subsequently with a silylating agent before analysis. In LC-MS analysis, both fractions were reconstituted in appropriate solvent mixtures. HPLC was performed by gradient elution on reversed phase separation columns. Mass spectrometric detection which allows target and high sensitivity MRM (Multiple Reaction Monitoring) profiling in parallel to a full screen analysis was applied as described in WO2003073464.
Steroids and their metabolites were measured by online SPE-LC-MS (Solid phase extraction-LC-MS).
Following comprehensive analytical validation steps, the data for each analyte were normalized against data from pool samples. These samples were run in parallel through the whole process to account for process variability. The significance of treatment group values specific for sex, treatmentduration and metabolite was determined by comparing means of the treated groups to the means of the respective untreated control groups using WELCH-test and quantified with treatment ratios versus control and p-values.
The identification of the most important biomarkers per toxicity pattern was done by a ranking of the analytes in the tables below. Therefore the metabolic changes in reference treatments of a given pattern (shown in the table) were compared with changes of the same metabolite in other unrelated treatments. […] The maximum absolute value of the respective TVALUE was taken to indicate the most important metabolite for the pattern.

[2] = tested on: male rats; assay: Plasma metabolite profiling (GC-MS, LC-MS, SPE-LC-MS) in male rats dosed once daily over 28 days (OECD 407); assay type: in vivo, rat; details: for Alanine, ratio versus control / Androstenedione, ratio versus control / Cholesterol, ratio versus control / Glycine, ratio versus control / Heptadecanoic acid (C17:0), ratio versus control / Testosterone, ratio versus control / Threonine, ratio versus control / Uric acid, ratio versus control / alpha-Tocopherol, ratio versus control / Glucose, ratio versus control / Lysophosphatidylcholine (C20:4), ratio versus control / Threonic acid, ratio versus control: male rats, plasma; for Glucose, ratio versus control / Lysophosphatidylcholine (C20:4), ratio versus control / Threonic acid, ratio versus control: low dose
How it was run: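 Polar and lipid fractions profiled by GC-MS and LC-MS/MRM, steroids by online SPE-LC-MS; pool-normalized data compared to controls by Welch test as treatment ratios and p-values.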

[3] = m7, male rats, high dose, Table 16

## CCOC(=O)C(C)(C)Oc1ccc(Cl)cc1 [Clofibrate]
[1]; f7, female rats
  Isopalmitic acid (C16:0): 0.83 *
  Alanine: 0.63
  Arginine: 0.74
  Ketoleucine: 1.04
  Lactate: 1.22
  Proline: 0.81
  Serine: 0.85
  Valine: 0.91
[1]; f14, female rats
  Isopalmitic acid (C16:0): 0.84
  Alanine: 0.72
  Arginine: 0.93
  Ketoleucine: 0.94
  Lactate: 0.66
  Proline: 0.88
  Serine: 0.98
  Valine: 0.94
[1]; f28, female rats
  Isopalmitic acid (C16:0): 1.53 *
  Alanine: 0.84
  Arginine: 0.92
  Ketoleucine: 0.88
  Lactate: 0.83
  Proline: 0.85
  Serine: 1.03
  Valine: 1.14

## CCC(=O)Oc1ccc(/C(CC)=C(\CC)c2ccc(OC(=O)CC)cc2)cc1 [Diethylstilboestrol dipropionate]
[1]; f7, Table 14a
  Cholesterol: 0.48 *
  Choline plasmalogen No 02: 0.7 *
  Lignoceric acid (C24:0): 0.49 *
  Sphingomyelin (d18:1, C16:0): 0.72 *
  Sphingomyelin (d18:2, C16:0): 0.67 *
  erythro-Sphingosine (d18:1): 0.38 *
[1]; f14, Table 14a
  Cholesterol: 0.69 *
  Choline plasmalogen No 02: 0.75 *
  Lignoceric acid (C24:0): 0.6 *
  Sphingomyelin (d18:1, C16:0): 0.59^
  Sphingomyelin (d18:2, C16:0): 0.71 *
  erythro-Sphingosine (d18:1): 0.67 *
[1]; f28, Table 14a
  Cholesterol: 0.58 *
  Choline plasmalogen No 02: 0.67 *
  Lignoceric acid (C24:0): 0.59 *
  Sphingomyelin (d18:1, C16:0): 0.73 *
  Sphingomyelin (d18:2, C16:0): 0.58 *
  erythro-Sphingosine (d18:1): 0.46 *

## C=CCN1C[C@H](C(=O)N(CCCN(C)C)C(=O)NCC)C[C@@H]2c3cccc4[nH]cc(c34)C[C@H]21 [Cabergoline]
[1]; f7, Table 13b
  3-O-Methylsphingosine (d18:1): 0.68 *
  5-O-Methylsphingosine (d18:1): 0.66 *
  16-Methylheptadecanoic acid: 0.57 *
  Arachidonic acid (C20:cis[5,8,11,14]4): 0.71 *
  Ceramide (d18:1, C24:1): 0.57 *
  Ceramide (d18:1,C24:0): 0.53 *
  Cholesterol: 0.72 *
  Cholesterolester No 01: 0.84^
  Dodecanol: 0.84 *
  Elaidic acid (C18:trans[9]1): 0.66 *
  Galactose, lipid fraction: 0.79^
  Glycerol phosphate, lipid fraction: 0.72 *
  Heptadecanoic acid (C17:0): 0.85^
  Lignoceric acid (C24:0): 0.54 *
  Lysophosphatidylcholine (C17:0): 0.83 *
  Phosphate, lipid fraction: 0.73 *
  Phosphatidylcholine (C18:0, C20:3): 0.85 *
  Phytosphingosine: 0.64 *
  Sphingomyelin (d18:1, C16:0): 0.94^
  Sphingomyelin (d18:1,C24:0): 0.84 *
  Sphingomyelin (d18:2, C16:0): 0.67 *
  Sphingomyelin (d18:2,C18:0): 0.89 *
  Stearic acid (C18:0): 0.79 *
  TAG No 07: 0.91^
  Tricosanoic acid (C23:0): 0.71 *
  alpha-Tocopherol: 0.82^
  beta-Sitosterol: 0.46 *
  erythro-Sphingosine (d18:1): 0.66 *
  myo-Inositol, lipid fraction: 0.87 *
  myo-Inositol-2-phosphate, lipid fraction: 0.61 *
  threo-Sphingosine (d18:1): 0.75 *
[1]; f14, Table 13b
  3-O-Methylsphingosine (d18:1): 0.36 *
  5-O-Methylsphingosine (d18:1): 0.34 *
  16-Methylheptadecanoic acid: 0.59 *
  Arachidonic acid (C20:cis[5,8,11,14]4): 0.32 *
  Ceramide (d18:1, C24:1): 0.6 *
  Ceramide (d18:1,C24:0): 0.57 *
  Cholesterol: 0.36 *
  Cholesterolester No 01: 0.79 *
  Dodecanol: 0.44 *
  Elaidic acid (C18:trans[9]1): 0.5 *
  Galactose, lipid fraction: 0.48 *
  Glycerol phosphate, lipid fraction: 0.34 *
  Heptadecanoic acid (C17:0): 0.61 *
  Lignoceric acid (C24:0): 0.33 *
  Lysophosphatidylcholine (C17:0): 0.72 *
  Phosphate, lipid fraction: 0.57 *
  Phosphatidylcholine (C18:0, C20:3): 0.72 *
  Phytosphingosine: 0.55 *
  Sphingomyelin (d18:1, C16:0): 0.79 *
  Sphingomyelin (d18:1,C24:0): 0.62 *
  Sphingomyelin (d18:2, C16:0): 0.58 *
  Sphingomyelin (d18:2,C18:0): 0.67 *
  Stearic acid (C18:0): 0.42 *
  TAG No 07: 0.73 *
  Tricosanoic acid (C23:0): 0.55 *
  alpha-Tocopherol: 0.4 *
  beta-Sitosterol: 0.3 *
  erythro-Sphingosine (d18:1): 0.37 *
  myo-Inositol, lipid fraction: 0.48 *
  myo-Inositol-2-phosphate, lipid fraction: 0.31 *
  threo-Sphingosine (d18:1): 0.44 *
[1]; f28, Table 13b
  3-O-Methylsphingosine (d18:1): 0.11 *
  5-O-Methylsphingosine (d18:1): 0.13 *
  16-Methylheptadecanoic acid: 0.28 *
  Arachidonic acid (C20:cis[5,8,11,14]4): 0.16 *
  Ceramide (d18:1, C24:1): 0.39 *
  Ceramide (d18:1,C24:0): 0.36 *
  Cholesterol: 0.16 *
  Cholesterolester No 01: 0.56 *
  Dodecanol: 0.27 *
  Elaidic acid (C18:trans[9]1): 0.33 *
  Galactose, lipid fraction: 0.24 *
  Glycerol phosphate, lipid fraction: 0.19 *
  Heptadecanoic acid (C17:0): 0.47 *
  Lignoceric acid (C24:0): 0.15 *
  Lysophosphatidylcholine (C17:0): 0.57 *
  Phosphate, lipid fraction: 0.36 *
  Phosphatidylcholine (C18:0, C20:3): 0.59 *
  Phytosphingosine: 0.34 *
  Sphingomyelin (d18:1, C16:0): 0.51 *
  Sphingomyelin (d18:1,C24:0): 0.36 *
  Sphingomyelin (d18:2, C16:0): 0.33 *
  Sphingomyelin (d18:2,C18:0): 0.3 *
  Stearic acid (C18:0): 0.28 *
  TAG No 07: 0.4 *
  Tricosanoic acid (C23:0): 0.23 *
  alpha-Tocopherol: 0.16 *
  beta-Sitosterol: 0.13 *
  erythro-Sphingosine (d18:1): 0.13 *
  myo-Inositol, lipid fraction: 0.23 *
  myo-Inositol-2-phosphate, lipid fraction: 0.08 *
  threo-Sphingosine (d18:1): 0.24 *

## O=P1(NCCCl)OCCCN1CCCl (stereo not drawn) [Ifosfamide]
[2]; high dose, day 7
  Alanine, ratio versus control: 1.07
  Androstenedione, ratio versus control: 3.68
  Cholesterol, ratio versus control: 1.12
  Glycine, ratio versus control: 1.33
  Heptadecanoic acid (C17:0), ratio versus control: 0.94
  Testosterone, ratio versus control: 2.35
  Threonine, ratio versus control: 1.21
  Uric acid, ratio versus control: 0.57
  alpha-Tocopherol, ratio versus control: 0.99
[2]; high dose, day 14
  Androstenedione, ratio versus control: 0.21 *
  Testosterone, ratio versus control: 0.21 *
[2]; high dose, day 28
  Alanine, ratio versus control: 0.76
  Androstenedione, ratio versus control: 0.24 *
  Cholesterol, ratio versus control: 1.13
  Glycine, ratio versus control: 1.28
  Heptadecanoic acid (C17:0), ratio versus control: 1.08
  Testosterone, ratio versus control: 0.22 *
  Threonine, ratio versus control: 0.88
  Uric acid, ratio versus control: 0.65
  alpha-Tocopherol, ratio versus control: 0.95

## C=CC1(C)OC(=O)N(c2cc(Cl)cc(Cl)c2)C1=O (stereo not drawn) [Vinclozolin]
[2]; m7, high dose, Table 11a
  Testosterone: 1.41^
[2]; m14, high dose, Table 11a
  Testosterone: 2.44 *
[2]; m28, high dose, Table 11a
  Testosterone: 1.09^

## C[C@]12CCC(=O)C(O)=C1CC[C@@H]1[C@@H]2CC[C@]2(C)C(=O)CC[C@@H]12 [Formestane]
[2]; day 7
  Glucose, ratio versus control: 0.8 *
  Lysophosphatidylcholine (C20:4), ratio versus control: 0.99 *
  Threonic acid, ratio versus control: 1.27 *
[2]; day 14
  Glucose, ratio versus control: 0.89 *
  Lysophosphatidylcholine (C20:4), ratio versus control: 0.97 *
  Threonic acid, ratio versus control: 1.24 *
[2]; day 28
  Glucose, ratio versus control: 0.9 *
  Lysophosphatidylcholine (C20:4), ratio versus control: 0.96 *
  Threonic acid, ratio versus control: 1.44 *

## CC1(C)CCC(=Cc2ccc(Cl)cc2)C1(O)Cn1cncn1 (stereo not drawn) [Triticonazole]
[2]; [3]
  Glycerol, polar fraction: 1.03
  Testosterone: 0.55 *
[2]; m14, male rats, high dose, Table 16
  Testosterone: 1.03
[2]; m28, male rats, high dose, Table 16
  Testosterone: 0.23 *
